# “Also recorded” adds a separate entry of the source.
# Legend:
# [1] = tested on: phosphorylated ribosomal protein S6 (pS6); test: Immunoblot of phosphorylated S6 in cortex after WYE125132 treatment; type: in vivo; conditions: cortex of Cntnap2-/- and Cntnap2+/- mice, 14 consecutive days gavage 10 mg/kg
# Description: Cntnap2 mutant and WT mice were obtained from heterozygous crossings and were born with the expected Mendelian frequencies. The three obtained genotypes were housed together. Mice were treated with p.o. gavaging once per day with either WYE125132 (10 mg/kg) or vehicle. All procedures involving animals were performed in accordance with the Columbia University/New York State Psychiatric Institute animal research committee.
# euthanized. For the electrophysiology and western blot rescue experiments, adult mice were gavaged for 14 consecutive days after which they were euthanized.
# Western blot analysis of mouse brain tissue and immunocytochemistry in human brain tissue was performed using standard methods.
# We examined whether we can reverse the dramatic enlargement of the pyramidal cell somata by targeting the mTOR overactivation. To this end, mice were gavaged daily with WYE125132 from P12 until P33-36 after which their brains were harvested for further analysis.
# [2] = tested on: pyramidal cells of Cntnap2 (Caspr2) mutant mice; test: Soma size quantitation of pyramidal cells after WYE125132 treatment; type: in vivo
# Text: In order to assess whether we could reverse or prevent the cellular abnormalities (i.e., enlarged pyramidal cell size), we treated with WYE125132 (‘Tx’ in FIG. 12) or vehicle (‘veh’ in FIG. 12) Caspr2^+/−/Thy1-YFP/H and Caspr2^−/−/Thy-1-YFP/H mice and WT littermates also positive for YFP/H for the entire period P12-P35. The mice were perfused and subsequently fixed with 4% PFA and sectioned coronally at 16 microns. Subsequently, 200× images were taken using an epifluorescent microscope of somatosensory and auditory cortex—a total of 15 images per animal/cortical region. The cell somata were traced on Photoshop to quantify pixels. We then converted the pixels to square microns. For the analysis listed here, Caspr2^+/−/Thy1-YFP/H and
# Cntnap2 mutant and WT mice were obtained from heterozygous crossings and were born with the expected Mendelian frequencies. […]
# WYE125132 (Chemscene) was administered by a daily p.o. gavaging in a volume of 10 ml/kg. […] For the two-photon and cell size quantitation studies, mice were gavaged from P12 to p35, after they were
# Soma Size Quantitation. […]
# perfused with PBS and then 4% PFA and subsequently post-fixed in 4% PFA for 1 hour at 4° C. […] Sections containing auditory and somatosensory cortices were analyzed. […] Soma size was determined by manually tracing pyramidal cell somata and measuring pixel number per selection. […] For each animal, 90 to 140 somata were measured. […]
smiles,measurement,setting,value
CNC(=O)Nc1ccc(-c2nc(N3CC4CCC(C3)O4)c3cnn(C4CCC5(CC4)OCCO5)c3n2)cc1 [WYE125132],phosphorylation of S6 (Phospho-S6: S6),[1],reverses phosphorylation of S6 to levels observed in WT littermates; also recorded: completely reversed
same,enlarged pyramidal cell soma size,"[2]; Cntnap2+/- and Cntnap2-/- (Caspr2) mutant mice, daily p.o. gavage 10 mg/kg, P12 to P33-36 (about 3 weeks), 10 mg/kg",completely reverses the enlarged pyramidal cell size; also recorded: complete reversal of the pyramidal cell enlargement phenotype; also recorded: entirely rescued
same,soma size in WT animals,"[2]; WT mice, compound versus vehicle",no effect on soma size

# From patent US20160089377A1, “THERAPEUTIC TARGETING OF THE MTOR PATHWAY IN NEURODEVELOPMENTAL AND NEUROPSYCHIATRIC DISEASE” (THE TRUSTEES OF COLUMBIA UNIVERISTY IN THE CITY OF NEW YORK, priority 2013, published 2016)
